{"source": "patent US5116851A", "about": "“Pharmaceutical composition and method for treating cardiovascular diseases using substituted anilides and sulfonamides” (E. R. Squibb & Sons, Inc., priority 1990, dated 1992)", "key": {"[1]": {"test_system": "isolated canine cardiac Purkinje fibers", "assay": "Normal action potential parameters incl. upstroke velocity (Vmax; sodium entry), standard microelectrode techniques", "assay_type": "cell-based", "settings": "for Vmax (velocity of upstroke): in V/s (unit assumed); for IC50: Canis lupus familiaris, purkinje, sodium entry, read-out: IC50 in reducing maximum upstroke velocity (Vmax)", "protocol": "(§1) The calcium channel blocking and sodium entry blocking activities of compounds of the present invention were tested using standard microelectrode techniques in isolated canine cardiac Purkinje fibers as reported in J. L. Bergey et al., \"Antiarrhythmic, hemodynamic, and cardiac electrophysiological evaluation of N-(2,6-dimethylphenyl)-N'-[3-(1-methylethylamino)propyl]-urea), (Wy 42,362)\", Arzneim -Forsch, 33:1258, 1983). […] Depression of this parameter indicates depression of calcium entry into cardiac tissue. […] Significant depression of the upstroke velocity (vmax) indicates the blocking of sodium entry into cardiac tissue."}, "[2]": {"test_system": "Ischemic and Nonischemic Isolated Rat Heart", "assay": "Isolated perfused rat heart (Langendorff), global ischemia/reperfusion: cardiac function, flow and LDH release", "design": "species or system rat (male Sprague-Dawley); FLOW (coronary blood flow): unit not given here", "settings": "1 μM; for LDH (Lactate Dehydrogenase Release): Postischemia, cumulative over 30 min reperfusion, per g preischemia heart weight, lower = greater cardioprotection; for cardioprotection compared with diltiazem: post-ischemia LDH; for LDH/DP: ratio of cardioprotection to cardiodepression, lower = greater selectivity", "protocol": "Lactate dehydrogenase is an enzyme released in the heart during an ischemic event and is an index of cardiac cell necrosis. In the Grover et al. model, this is measured during reperfusion and an agent which provides for lower release levels of LDH is considered to offer greater cardioprotection since lower LDH indicates a smaller infarct size. Cardiac function is determined using the double product (DP) of heart rate times the left ventricular developed pressure (LVDP) divided by 1,000.\nThe lower the value for DP before ischemia for a given agent, the more cardiodepressant it is considered to be.\nMale Sprague-Dawley rats (450-550 g) were used in all experiments. The rats were anesthetized using 30 mg/kg sodium pentobarbital (i.p.). They were intubated and then treated with i.v. heparin (1000 U/kg). While being mechanically ventilated, their hearts were perfused in situ via retrograde cannulation of the aorta. The hearts were then excised and quickly moved to a Langendorff apparatus where they were perfused with Krebs-Henseleit bicarbonate buffer (112 mM NaCl, 5 mM KCl, 1.2 mMMg SO4, 1 mM KH2 PO4, 1.25 mM CaCl2, 11.5 mM dextrose, and 2 mM pyruvate) at a constant pressure (75 mm Hg). A water filled latex balloon attached to a metal cannula was then inserted into the left ventricle and connected to a Statham pressure transducer for measurement of left ventricular pressure. The hearts were allowed to equilibrate for 15 minutes at which time end diastolic pressure (EDP) was adjusted to 5 mm Hg and this was maintained for 5 minutes. Pre-ischemia or pre-drug function, heart rate and coronary blood flow (extracorporeal electromagnetic flow probe, Carolina Medical Electronics, King, N.C.) were then measured. Cardiac function was determined using the double product of heart rate (HR) times left ventricular developed pressure (LVDP) divided by 1,000.\nAll of these hearts were treated with their respective drugs or vehicle for ten minutes. At this time, post-drug cardiac function and flow were measured and then the hearts were made globally ischemic by shutting off the buffer perfusion. The ischemia was maintained for 25 minutes at which time reperfusion with nondrug treated buffer was instituted. Reperfusion was maintained for 30 minutes and at this time reperfusion function and flow were again determined.\nAt the end of the reperfusion period, the reperfusion buffer was sampled for cumulative LDH release as previously described. LDH release was expressed as U/g preischemia heart weight for the 30 minute collection period. LDH release is a sensitive index for loss of cell viability. Determination of the relationship between pre-ischemic, post-drug cardiac function was made by dividing the double product (HR ×LVDP/1000) by the cumulative LDH release.\nAll data were analyzed using a one way analysis of variance. Multiple comparisons were done using the Duncan procedure. All data are expressed as the mean±SE.\nThe pre-ischemia DP values are a measure of the cardiodepression of the drug on the healthy cardiac tissue.\nThe post-ischemia LDH values are a measure of the cardioprotection or anti-ischemic activity of the drug. In this case, lower values indicate greater anti-ischemic activity or greater cardioprotection.\nThe LDH/DP values are the ratio of cardioprotection to cardiodepression, the lower values indicating a greater selectivity for anti-ischemic activity.\nThe post-ischemia DP indicates cardiodepression after the ischemic episode and the lower DP values here are indicative of agents which still remained in the cardiac tissue for more than 30 minutes post ischemia. [drawing 16]"}, "[3]": {"test_system": "isolated canine cardiac Purkinje fibers", "assay": "Calcium-dependent slow response action potential amplitude (SAPA), standard microelectrode techniques", "assay_type": "cell-based", "settings": "Canis lupus familiaris, read-out: IC50 in reducing slow response action potential amplitude (SAPA)", "protocol": "as §1"}, "[4]": {"test_system": "24 hour post-infarction arrhythmias in dogs", "assay": "Antiarrhythmic activity in standard canine arrhythmia model (24 hour post-infarction arrhythmias)", "assay_type": "in vivo, dog", "settings": "intravenous doses ranging from 6 to 15 mg/kg", "protocol": "Antiarrhythmic activity was confirmed for the compound of Example 1 using a standard canine arrhythmia model as reported in J. L. Bergey et al., \"Antiarrhythmic, hemodynamic, and cardiac electrophysiological evaluation of N-(2,6-dimethylphenyl)-N'-[3-(1-methylethylamino)propyl]urea), (Wy 42,362)\", Arzneim -Forsch, 33:1258, 1983). In dogs suffering from 24 hour post-infarction arrhythmias the compound of Example 1 reversed arrhythmias in 5 out of 5 dogs tested following intravenous doses ranging from 6 to 15 mg/kg."}, "rabbit aorta": {"test_system": "rabbit aorta", "assay": "Reduction of tone of rabbit aorta by high potassium (Vasc. Ca^++ Block)", "assay_type": "cell-based", "settings": "Oryctolagus cuniculus; read-out: IC50 in reducing tone of rabbit aorta by high potassium (Vasc. Ca^++ Block)", "text": "|(SAPA), in reducing maximum upstroke velocity (Vmax) |and in reducing tone of rabbit aorta by high potassium |(Vasc. Ca^++ Block)"}, "[5]": {"settings": "Postischemia (30 min.), occlusion 25 minutes, reperfusion 30 minutes"}, "[6]": {"settings": "Preischemia (Post Drug), lower = more cardiodepressant"}}}
{"smiles": "CN(C)CCCN(C(=O)Cc1ccccc1)c1ccccc1SCc1ccc(Cl)cc1", "note": "[Example 1, N-[2-[[(4-Chlorophenyl)methyl]thio]phenyl]-N-[3-(dimethylamino)propyl]benzeneacetamide]", "values": [{"measurement": "APD 50 (action potential duration @ 50% repolarization)", "setting": "[1]; 1 × 10^-5", "result": "160 ± 3"}, {"measurement": "APD90 (action potential duration @ 90% repolarization)", "setting": "[1]; 1 × 10^-5", "result": "320 ± 3"}, {"measurement": "PP (peak potential)", "setting": "[1]; 1 × 10^-5", "result": "11 ± 2"}, {"measurement": "RP (resting potential)", "setting": "[1]; 1 × 10^-5", "result": "89 ± 1"}, {"measurement": "Vmax (velocity of upstroke)", "setting": "[1]; 1 × 10^-5", "result": "203 ± 19"}, {"measurement": "APD 50 (action potential duration @ 50% repolarization)", "setting": "[1]; 1 × 10^-6", "result": "219 ± 3"}, {"measurement": "APD90 (action potential duration @ 90% repolarization)", "setting": "[1]; 1 × 10^-6", "result": "320 ± 3"}, {"measurement": "PP (peak potential)", "setting": "[1]; 1 × 10^-6", "result": "35 ± 1"}, {"measurement": "RP (resting potential)", "setting": "[1]; 1 × 10^-6", "result": "94 ± 1"}, {"measurement": "Vmax (velocity of upstroke)", "setting": "[1]; 1 × 10^-6", "result": "443 ± 7"}, {"measurement": "APD 50 (action potential duration @ 50% repolarization)", "setting": "[1]; 3 × 10^-6", "result": "154 ± 3"}, {"measurement": "APD90 (action potential duration @ 90% repolarization)", "setting": "[1]; 3 × 10^-6", "result": "305 ± 4"}, {"measurement": "PP (peak potential)", "setting": "[1]; 3 × 10^-6", "result": "28 ± 1"}, {"measurement": "RP (resting potential)", "setting": "[1]; 3 × 10^-6", "result": "89 ± 1"}, {"measurement": "Vmax (velocity of upstroke)", "setting": "[1]; 3 × 10^-6", "result": "375 ± 11"}, {"measurement": "IC50", "setting": "[1]", "result": 6.7, "unit": "µM"}, {"measurement": "DP (Double Product, HR x LVDP / 1,000)", "setting": "[2]; [5]", "result": 7}, {"measurement": "FLOW (coronary blood flow)", "setting": "[2]; [5]", "result": 12}, {"measurement": "HR (Heart Rate)", "setting": "[2]; [5]", "result": 211, "unit": "beats/min"}, {"measurement": "LVDP (Left Ventricular Developed Pressure)", "setting": "[2]; [5]", "result": 34, "unit": "mmHg"}, {"measurement": "LDH (Lactate Dehydrogenase Release)", "setting": "[2]", "result": 12, "unit": "U/g"}, {"measurement": "FLOW (coronary blood flow)", "setting": "[2]; Preischemia (Post Drug)", "result": 25}, {"measurement": "HR (Heart Rate)", "setting": "[2]; Preischemia (Post Drug)", "result": 229, "unit": "beats/min"}, {"measurement": "LVDP (Left Ventricular Developed Pressure)", "setting": "[2]; Preischemia (Post Drug)", "result": 90, "unit": "mmHg"}, {"measurement": "DP (Double Product, HR x LVDP / 1,000)", "setting": "[2]; [6]", "result": 21}, {"measurement": "cardioprotection compared with diltiazem", "setting": "[2]", "result": "comparable to diltiazem in cardioprotection"}, {"measurement": "LDH/DP", "setting": "[2]", "result": 0.55}, {"measurement": "IC50", "setting": "[3]", "result": "> 10", "unit": "µM"}, {"measurement": "reversed arrhythmias (dogs tested)", "setting": "[4]", "result": "5 out of 5"}, {"measurement": "IC50", "setting": "rabbit aorta", "result": 1.6, "unit": "µM"}]}
{"smiles": "CN(C)CCCN(C(=O)Cc1ccccc1)c1ccccc1SCc1ccccc1.Cl", "note": "[Example 3, N-[3-(Dimethylamino)propyl]-N-[2-[(phenylmethyl)thio]phenyl]benzeneacetamide, monohydrochloride]", "values": [{"measurement": "APD 50 (action potential duration @ 50% repolarization)", "setting": "[1]; 1 × 10^-5", "result": "123 ± 2"}, {"measurement": "APD90 (action potential duration @ 90% repolarization)", "setting": "[1]; 1 × 10^-5", "result": "271 ± 8"}, {"measurement": "PP (peak potential)", "setting": "[1]; 1 × 10^-5", "result": "7 ± 1"}, {"measurement": "RP (resting potential)", "setting": "[1]; 1 × 10^-5", "result": "84 ± 1"}, {"measurement": "Vmax (velocity of upstroke)", "setting": "[1]; 1 × 10^-5", "result": "156 ± 11"}, {"measurement": "APD 50 (action potential duration @ 50% repolarization)", "setting": "[1]; 1 × 10^-6", "result": "181 ± 5"}, {"measurement": "APD90 (action potential duration @ 90% repolarization)", "setting": "[1]; 1 × 10^-6", "result": "282 ± 2"}, {"measurement": "PP (peak potential)", "setting": "[1]; 1 × 10^-6", "result": "32 ± 1"}, {"measurement": "RP (resting potential)", "setting": "[1]; 1 × 10^-6", "result": "88 ± 1"}, {"measurement": "Vmax (velocity of upstroke)", "setting": "[1]; 1 × 10^-6", "result": "401 ± 16"}, {"measurement": "APD 50 (action potential duration @ 50% repolarization)", "setting": "[1]; 3 × 10^-6", "result": "125 ± 3"}, {"measurement": "APD90 (action potential duration @ 90% repolarization)", "setting": "[1]; 3 × 10^-6", "result": "251 ± 1"}, {"measurement": "PP (peak potential)", "setting": "[1]; 3 × 10^-6", "result": "26 ± 1"}, {"measurement": "RP (resting potential)", "setting": "[1]; 3 × 10^-6", "result": "88 ± 1"}, {"measurement": "Vmax (velocity of upstroke)", "setting": "[1]; 3 × 10^-6", "result": "286 ± 9"}, {"measurement": "IC50", "setting": "[1]", "result": 3.8, "unit": "µM"}, {"measurement": "DP (Double Product, HR x LVDP / 1,000)", "setting": "[2]; [5]", "result": 22}, {"measurement": "FLOW (coronary blood flow)", "setting": "[2]; [5]", "result": 11}, {"measurement": "HR (Heart Rate)", "setting": "[2]; [5]", "result": 238, "unit": "beats/min"}, {"measurement": "LVDP (Left Ventricular Developed Pressure)", "setting": "[2]; [5]", "result": 93, "unit": "mmHg"}, {"measurement": "LDH (Lactate Dehydrogenase Release)", "setting": "[2]", "result": 5.2, "unit": "U/g"}, {"measurement": "FLOW (coronary blood flow)", "setting": "[2]; Preischemia (Post Drug)", "result": 18}, {"measurement": "HR (Heart Rate)", "setting": "[2]; Preischemia (Post Drug)", "result": 243, "unit": "beats/min"}, {"measurement": "LVDP (Left Ventricular Developed Pressure)", "setting": "[2]; Preischemia (Post Drug)", "result": 79, "unit": "mmHg"}, {"measurement": "DP (Double Product, HR x LVDP / 1,000)", "setting": "[2]; [6]", "result": 19}, {"measurement": "cardioprotection compared with diltiazem", "setting": "[2]", "result": "offered more cardioprotection than diltiazem"}, {"measurement": "LDH/DP", "setting": "[2]", "result": 0.30}, {"measurement": "IC50", "setting": "[3]", "result": 1.5, "unit": "µM"}, {"measurement": "IC50", "setting": "rabbit aorta", "result": 1.7, "unit": "µM"}]}
